Reference: US11952582B2, “Herbicide-resistance gene and application thereof in plant breeding” (priority 2017, dated 2024)
“Also recorded” adds a separate entry of the source.

How the values were obtained:
[1] = test system: WT and T0 OE SDM rice leaves; experiment: Malondialdehyde content in rice leaves; type: in vivo; conditions: 200 μM spray, 1 week
Protocol: Malondialdehyde (MDA) is an important marker of the degree of oxide film damage. The previous method (Heath and Packer, 1968) for the determination of malondialdehyde content was referred with slight modifications. 1 g of rice leaves were accurately weighed and place to a pre-cooling mortar. 10 mL of pre-cooling 10% trichloroacetic acid (TCA, v/v) was added and grind thoroughly. Then the lapping solution was transfered to a 10 mL centrifuge tube and centrifuged at 4000 rpm for 10 min (4° C.). 2 mL of supernatant was pipetted and mixed with an equal volume of 0.6% 2-Thiobarbituric acid (TBA, v/v), and incubated at 100° C. for 15 min.
Then the reaction solution was cooled at room temperature. The cooled reaction solution was centrifuged at 4000 rpm for 10 min (4° C.). The supernatant was taken and measured absorbance at wavelengths of 450 nm, 532 nm and 600 nm using ultraviolet spectrophotometers, respectively. Each sample was repeated 3 times. The unit of MDA content is nmol g^−1 FW.

[2] = test system: HPPD, VTE1 and VTE3 gene expression in Arabidopsis seedlings; experiment: qRT-PCR of HPPD and vitamin E biosynthesis genes in Arabidopsis after herbicide treatment; type: in vivo, Arabidopsis thaliana; conditions: 250 nM, 6 h
Protocol: 2 week-old T3 generation seedlings of WT, OE At, OE Pa and OE M3 were used as materials to set up a treatment group and a control group, respectively, wherein the treatment group was continuously cultured in ½ MS liquid medium containing 250 nM mesotrione for 6 h. The total RNA of related materials was extracted using Super Fast Plant RNA Extraction Kit (Beijing Huayueyang Biological Technology Co., Ltd., China). The concentration of RNA samples was measured using NanoDrop ND1000 (Thermo Scientific, USA). RNA samples with an absorbance ratio (at wavelengths of 260/280 nm and 260/230 nm) of approximately 2.0 were selected. The total RNA (1,000 ng) was then used for synthesis of cDNA for reverse transcription using a cDNA synthesis kit (One-step Removal of Transcript gDNA and cDNA Synthesis Super Kit, TransGen).
As for quantitative reverse transcription PCR analysis, 3.0 μL cDNA was used as a template in a 20 μL reaction system to detect the expression levels of HPPD as well as VTE1 and VTE3 genes which encode the key enzymes in the biosynthesis of vitamin E, and actin was used as an internal reference gene. Three technical repetitions were performed on the Bio-Rad CFX96 real-time system. REST software was used for statistical analysis.

[3] = test system: WT (William 82), OE GmHPPD and OE PaHPPD-SDM T1 soybean plants; experiment: Soybean resistance to herbicide at whole plant level (spraying); type: in vivo; conditions: 20 μM sprayed twice
Protocol: 20 μM mesotrione (prepared with 0.1% Tween-20) and 0.1% Tween-20 were spray to 4 week-old transgenic T1 generation OE SDMHPPD, T1 generation OE GmHPPD and WT soybean which were grown in an artificial climate chamber (27° C., […], light/dark) for the first time. A second spray was applied after 1 week. Then the phenotype of the plants was observed very day, and the experimental result was recorded by taking photos 2 weeks after the treatment.

[4] = test system: GmHPPD, HST, HPT, MPQMT and TC gene expression in soybean seedlings; experiment: qPCR of HPPD and tocopherol biosynthesis genes in soybean after herbicide treatment; type: in vivo; conditions: 20 μM, 12 h
Protocol: 4 week-old T1 generation seedlings of WT, OE GmHPPD and OE PaHPPD-SDM were used as materials to set up a treatment group and a control group, respectively, wherein the treatment group was continuously cultured in ½ MS liquid medium containing 20 μM mesotrione for 12 h. The total RNA of related materials was extracted using Super Fast Plant RNA Extraction Kit (Beijing Huayueyang Biological Technology Co., Ltd., China). The concentration of RNA samples was measured using NanoDrop ND1000 (Thermo Scientific, USA). RNA samples with an absorbance ratio (at wavelengths of 260/280 nm and 260/230 nm) of approximately 2.0 were selected. The total RNA (1,000 ng) was then used for synthesis of cDNA for reverse transcription using a cDNA synthesis kit (One-step Removal of Transcript gDNA and cDNA Synthesis Super Kit, TransGen).
As for quantitative reverse transcription PCR analysis, 3.0 μL cDNA was used as a template in a 20 μL reaction system, and gene-specific primers such as qGmHPPD F and qGmHPPD R were used for GmHPPD gene, qGmHST F and qGmHST R were used for […] gene (alkapton lycopene transferase gene), qGmHPT F and qGmHPT R were used for GmHPT or VTE2 genes, GmMPQMT F and MPQMT R were used for GmMPQMT methyl transferase genes (also known as VTE3), GmTC F and GmTC R were used for GmTC genes (also known as VTE1, tocopherol cyclase gene). These VTE (1, 2 and 3) genes were selected because they encode the key enzymes involved in tocopherol biosynthesis. Three technical repetitions were performed on the Bio-Rad CFX96 real-time system. REST software was used for statistical analysis.

[5] = test system: WT (William 82), OE GmHPPD and OE PaHPPD-SDM T1 soybean plants; experiment: Chlorophyll content and plant height of T1 generation soybean after whole plant spraying; type: in vivo; conditions: 20 μM sprayed twice, 2 weeks
Protocol: Wild type soybean William 82, T1 generation OE PaHPPD-SDM soybean and T1 generation OE GmHPPD soybean seedlings were sprayed with 20 μM mesotrione (prepared with 0.1% Tween-20) and 0.1% Tween-20 for twice, respectively. The interval between two sprays is 1 week. Two weeks after spray treatment, the total chlorophyll of the leaves was extracted and the content was determined by referring to the method of Lichtenthaler HK (1987). All experiments were repeated biologically 3 times, and the average value was taken.

[6] = test system: WT and T0 OE SDM rice seedlings; experiment: Rice resistance to herbicide at pot level (spray); type: in vivo; conditions: 200 μM spray, 21 d (3 weeks)
Protocol: Transgenic T0 generation OE SDM and WT rice seedlings were planted in pots containing soil and placed in an artificial climate room (30° C. 16 h light/28° C. 8 h dark) for growth. 3 weeks later, when the rice seedlings reached a height of 15-20 cm, 200 μM mesotrione (prepared with 0.1% Tween-20) and 0.1% Tween-20 were sprayed to OE SDM and WT rice seedlings, respectively. Then, the phenotype should be observed every week. The oxidative stress index was measured 1 week after the treatment, the chlorophyll content of the leaves was measured 2 weeks after the treatment, and the experimental result was photographed 3 weeks after the treatment.

Q: For `CS(=O)(=O)c1ccc(C(=O)C2C(=O)CCCC2=O)c([N+](=O)[O-])c1` [mesotrione], which “MDA content in WT rice leaves compared with OE SDM rice leaves” value [1] is on record?
A: significantly higher

Q: What about the “expression levels of HPPD, VTE1 and VTE3 compared with untreated seedlings” value ([2]; OE At, OE Pa and WT lines) of the same compound?
A: inhibited to varying degrees

Q: And the “HPPD gene expression level compared with untreated seedlings” value ([2]; OE M3 line)?
A: basically not inhibited

Q: And the “gene expression levels of VTE1 and VTE3 compared with untreated seedlings” value ([2]; OE M3 line)?
A: up-regulated

Q: What about the “phenotype after whole plant spraying” value ([3]; OE PaHPPD-SDM T1 line) of the same compound?
A: grew normally

Q: And the “phenotype after whole plant spraying” value ([3]; wild-type William 82 and OE GmHPPD T1 line)?
A: albino symptom and growth retardation

Q: And the “expression levels of GmHPPD and MPQMT genes compared with control” value ([4]; OE GmHPPD T1 line)?
A: decreased

Q: What about the “expression levels of HST, HPT and TC genes compared with control” value ([4]; OE GmHPPD T1 line) of the same compound?
A: increased

Q: And the “expression levels of GmHPPD and HPT genes compared with control” value ([4]; OE PaHPPD-SDM T1 line)?
A: up-regulated

Q: And the “expression levels of HST, MPQMT and TC genes compared with control” value ([4]; OE PaHPPD-SDM T1 line)?
A: almost unchanged

Q: And the “expression of GmHPPD, HST, HPT, MPQMT and TC genes compared with control” value ([4]; wild-type William 82)?
A: significantly reduced

Q: And the “contents of chlorophyll a and chlorophyll b (and plant height) of treated OE PaHPPD-SDM compared with treated OE GmHPPD and wild type” value [5]?
A: significant higher

Q: What about the “order of plant height of treated lines” value [5] of the same compound?
A: OE PaHPPD-SDM>OE GmHPPD>wild-type soybean William 82

Q: And the “contents of chlorophyll a and chlorophyll b in leaves (and plant height) compared with control treatment” value ([5]; OE GmHPPD and wild-type William 82)?
A: significantly lower

Q: What about the “contents of chlorophyll a and chlorophyll b in leaves (and plant height) compared with control” value ([5]; OE PaHPPD-SDM) of the same compound?
A: reduced; also recorded: slightly reduced

Q: And the “plant height of treated soybean compared with control” value ([5]; all lines)?
A: lower

Q: What about the phenotype of leaves/plants ([6]; OE SDM rice line (T0)) of the same compound?
A: grew well; also recorded: very small visible signs of damage

Q: And the phenotype of leaves/plants ([6]; WT rice)?
A: albino and the growth was inhibited until death; also recorded: withered and died
